Where “and” joins values, the source holds several entries; their conditions need not be identical. Identical values can stand only once.
How the values were obtained:
[1] = system: neuronal-type nicotinic receptors; assay type: cell-based, bovine
[2] = system: neuronal-type nicotinic receptors; conditions: cited from earlier work

Row | Compound | Adrenaline Release 1st [1] | Adrenaline Release 2nd [1] | Adrenaline Release 3rd [1] | Adrenaline Release 4th [1] | Adrenaline Release % control [1] | Adrenaline Release mean [1] | Noradrenaline Release 1st [1] | Noradrenaline Release 2nd [1] | Noradrenaline Release 3rd [1] | Noradrenaline Release 4th [1] | Noradrenaline Release % control [1] | Noradrenaline Release mean [1] | effect on nicotine-stimulated release of adrenaline and noradrenaline (in words) [2]
1 | C[C@@H]1NC(=O)[C@@H]2CCCC[C@H](NC(=O)CN)C(=O)N[C@@H](CSSC[C@@H](C(N)=O)NC(=O)[C@H](CCCNC(=N)N)NC(=O)[C@H](Cc3cc4ccccc4[nH]3)NC1=O)C(=O)N[C@@H](CO)C(=O)N[C@@H](CC(=O)O)C(=O)N1CCCC1C(=O)N[C@@H](CCCNC(=N)N)C(=O)N2 (stereo partly drawn) [compound 118, [2,8]-Dicarba-[3,12]-Cystino Conotoxin ImI: NH2-Gly-c[Hag-Cys-Ser-Asp-Pro-Arg-Hag]-Ala-Trp-Arg-Cys)-NH2] | 2.94% and 2.55% | 4.40% and 3.63% | 4.46% and 2.62% | 4.09% and 3.31% | 88.260% and 65.306% | 3.97% and 3.03% | 4.52% and 4.19% | 6.29% and 5.86% | 7.00% and 4.32% | 7.34% and 5.51% | 90.859% and 69.384% | 6.29% and 4.97% | –
2 | C[C@@H]1NC(=O)[C@@H]2CSC3(SC[C@@H](C(N)=O)NC(=O)[C@H](CCCNC(=N)N)NC(=O)[C@H](Cc4cc5ccccc5[nH]4)NC1=O)SC[C@H](NC(=O)CN)C(=O)N[C@@H](CS3)C(=O)N[C@@H](CO)C(=O)N[C@@H](CC(=O)O)C(=O)N1CCCC1C(=O)N[C@@H](CCCNC(=N)N)C(=O)N2 (stereo partly drawn) [Ctx ImI, α-conotoxin ImI] | – | – | – | – | – | – | – | – | – | – | – | – | inhibit the nicotine-stimulated release

Source: patent publication US8759480B2, “Contoxin analogues and methods for synthesis of intramolecular dicarba bridge-containing peptides” (Syngene Limited, priority 2006, dated 2014)
